Source: article PMC9923724, “Half sandwich-type osmium, ruthenium, iridium and rhodium complexes with bidentate glycosyl heterocyclic ligands induce cytostasis in platinum-resistant ovarian cancer cells and bacteriostasis in Gram-positive multiresistant bacteria” (Frontiers in Chemistry, 2023)
pIC50: −log10 of the molar value.

Columns and labels:
Type in all cases: cell-based
[1] = tested on: cisplatin resistant A2780 cells; experiment: SRB assay (48 h) on cisplatin-resistant A2780 cells; conditions: for pIC50 / cisplatin resistant A2780 SRB Max. (maximal inhibition): cisplatin resistant A2780 cells, SRB, 48 h
Description: 6 × 10^3 cisplatin-resistant A2780 cells were plated to 96 well plates. Cells were treated with the compounds in the concentrations indicated for either 4 h for an MTT assay or for 48 h for an SRB assay. Data is represented as average ± SD, from three biological replicates; individual assays were performed in duplicates. Values were normalized for vehicle treated cells, absorbance for vehicle treated cells equals to 1. Each compound was assessed individually. Normality was assessed using the Shapiro-Wilk test. […] Statistical significance was assessed using One-way ANOVA test comparing all points to the smallest concentration. For better visibility the p values are presented in an excel sheet at https://figshare.com/s/2c942a812caea8869a67. Non-linear regression was performed on the results of the SRB assay datasets.
Cisplatin resistant cells underwent selection (1 µM cisplatin) once a week for 3 days before plating for any assay.
The assay was performed similar to ([Kovács et al., 2019]). Cells were seeded in 96 well plates the day before the assay. Cells were treated with the compounds for 48 h. Cells were fixed with 10% trichloroacetic acid (TCA). Fixed cells were washed in distilled water 3 times followed by staining with SRB (0.4 m/V% dissolved in 1% acetic acid) for 10 min. Stained cells were washed in 1% acetic acid 5 times; acetic acid was removed and cells were left to dry. Protein-bound SRB was released by adding 100 µl 10 mM Tris base. Plates were measured in a plate photometer (Thermo Scientific Multiscan GO spectrophotometer, Waltham, MA, United States) at 540 nm. On each plate wells were designed to contain vehicle-treated cells. In calculations the readings for these wells was considered as 1 and all readings were expressed relative to these values.
Statistical analysis was performed using 8.0.1 version of Graphpad Prism. Values were tested for normal distribution using the D’Agostino and Pearson normality test. When necessary, values were log normalized or were normalized using the Box-Cox normalization method ([Box and Cox, 1964]) as indicated in the figure captions.

A2780 cells = experiment: Annexin V - propidium iodide double staining, flow cytometry; conditions: 2 h, complexes at their IC50 (Ru-7 0.846 μM, Os-7 0.578 µM, Ir-7 0.891 µM)
From the text: We verified the toxic effects of the active Ru, Os and Ir complexes by Annexin V-FITC propidium iodide (PI) double staining. The complexes were applied in concentrations corresponding to their respective IC50 values and we have not detected increases in the apoptotic (Annexin V positive population) or the necrotic (PI positive and Annexin V—PI double positive populations) as opposed to the hydrogen peroxide-treated cells used as positive control (Figure 6).
Cells were then stained with Annexin V and propidium iodide (PI) and cells were subjected to flow cytometry as described in Materials and Methods. The percent of cells in the quadrants are plotted. Data is represented as average ± SD, from three biological replicates, individual assays were performed in duplicates. Normal distribution was achieved by Box-Cox normalization of the data. Statistical significance was determined using a two-way ANOVA test, all measurement points were compared with each other. * indicate statistically significant differences between vehicle-treated (control) and treated cells (complexes or 300 µM H2O2) corresponding to the same quadrant (e.g., vehicle-treated double negative cells vs. H2O2-treated double negative cells) at p <0.05.
The proportions of dead cells was assessed using the Annexin V—propidium iodide assay and was measured using flow cytometry using BD FacsCalibur (BD Biosciences, Franklin Lakes, NJ, United States) instrument and the FITC Annexin V/Dead Cell Apoptosis kit (Life Technologies, Eugene, OR, United States) according to the manufacturer’s instructions similar to ([Bai et al., 2001]). Quadrants were set based on the FITC and PI values observed for the vehicle-treated cells. Ten thousand cells were measured and the percent in the quadrants was used for the subsequent calculation.

[2] = tested on: 4-hydroxynonenal (4HNE)-modified proteins in A2780 cells; experiment: Western blot for 4HNE-modified proteins in A2780 cells; conditions: IC50 concentrations, 15 or 30 min, bands ∼70 kDa and ∼60 kDa
Description: FIGURE 9 (A) Vitamin E, a lipid soluble antioxidant blocks the cytostatic activity of the bioactive complexes. 1.5 × 10^3 A2780 cells were plated to 96 well plates. Cells were treated with the compounds in the concentrations indicated for 48 h followed by an SRB assay. Data is represented as average ± SD, from four biological replicates; individual assays were performed in duplicates. Values were normalized for vehicle treated cells, absorbance for vehicle treated cells equals to 1. Normality was checked using the D’Agostino-Pearson normality test. […] Statistical significance was assessed using two-way ANOVA test comparing all measurement points. * and *** represent statistical significance at p <0.05 and 0.001, respectively, between the lowest concentration and the higher concentrations among non-vitamin E-treated cells. ! and !!! represent statistical significance at p <0.05 and 0.001, respectively, between the lowest concentration and the higher concentrations among vitamin E-treated cells. #, ## and ### represent statistical significance at p <0.05, p <0.01 and 0.001, respectively, between the non-vitamin E-treated vs. vitamin E-treated cells. […] Cells were harvested and lysed. Cellular proteins were separated on a 10% SDS-PAGE gel and were blotted. […]
To complement the vitamin E experiments we assessed oxidative stress by detecting the formation of 4-hydroxynonenal (4HNE)-modified proteins, a hallmark of oxidative stress ([Ayala et al., 2014]; [Zhang and Forman, 2017]). […]
SDS-polyacrylamide gel electrophoresis and Western blot was performed as in ([Márton et al., 2018]) using an antibody against 4HNE (Abcam (ab46545) 1:1000) that was detected using a corresponding peroxidase-conjugated secondary antibody (1:10000, Cell Signaling Technology, Inc., Beverly, MA, United States). […] ECL and amido black pictures were captured using the ChemiDoc Touch Imaging System (Bio-Rad Laboratories, Inc., Hercules, California, United States) and the pictures were evaluated using the Image Lab software (Bio-Rad).

SMILES	pIC50 [1]	cisplatin resistant A2780 SRB Max. (maximal inhibition) [1] [%]	induction of cell death (apoptotic / necrotic populations) (A2780 cells)	4HNE formation (4HNE-modified proteins) [2]	fold change of IC50, cisplatin resistant vs cisplatin sensitive A2780 ([1]; SRB assays, resistant / sensitive A2780)
Cc1c(C)c(C)[c-](C)c1C.F[P-](F)(F)(F)(F)F.O=C(OCC1OC(n2cc(-c3ccc4ccccc4n3)nn2)C(OC(=O)c2ccccc2)C(OC(=O)c2ccccc2)C1OC(=O)c1ccccc1)c1ccccc1.[Cl][Ir+2] (mixture of isomers) [Ir-7]	5.81	>90	do not induce cell death	gross induction of 4HNE formation	
Cc1ccc(C(C)C)cc1.F[P-](F)(F)(F)(F)F.O=C(OCC1OC(n2cc(-c3ccc4ccccc4n3)nn2)C(OC(=O)c2ccccc2)C(OC(=O)c2ccccc2)C1OC(=O)c1ccccc1)c1ccccc1.[Cl][Os+] (mixture of isomers) [Os-7]	6.32	>90	do not induce cell death	gross induction of 4HNE formation	technically unchanged
Cc1ccc(C(C)C)cc1.F[P-](F)(F)(F)(F)F.O=C(OCC1OC(n2cc(-c3ccc4ccccc4n3)nn2)C(OC(=O)c2ccccc2)C(OC(=O)c2ccccc2)C1OC(=O)c1ccccc1)c1ccccc1.[Cl][Ru+] (mixture of isomers) [Ru-7]	5.93	>90	do not induce cell death	gross induction of 4HNE formation	
